In the supplement of paper PMC9663587:

What was measured:
[1] = compound: CCN1CCN(Cc2ccc(Nc3ncc(F)c(-c4cc(F)c5nc(C)n(C(C)C)c5c4)n3)nc2)CC1; test: increase in dead-cell fraction, 72 h; higher = more death;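 further: breast cancer cell lines in 384-well plates, stained with Hoechst plus LIVE/DEAD far red dye and imaged, cells above an LDR intensity threshold counted dead, Hoechst-negative corpses included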
Flavopiridol [2] = compound: T1, CN1CC[C@H](c2c(O)cc(O)c3c(=O)cc(-c4ccccc4Cl)oc23)[C@H](O)C1 [Flavopiridol]; test: as above
YKL-5-124 = compound: C=CC(=O)Nc1ccc(C(=O)Nc2[nH]nc3c2CN(C(=O)N[C@H](CN(C)C)c2ccccc2)C3(C)C)cc1 [YKL-5-124]; test: GR value, 72 h; higher = faster growth (1 = untreated, <0 = killing);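 further: breast cancer and non-malignant breast epithelial lines, nine half-log doses, viable cells counted by Hoechst and LIVE/DEAD dye imaging versus time-zero plates and DMSO controls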
BSJ-03-123 = compound: CC(=O)c1c(C)c2cnc(Nc3ccc(N4CCN(CCOCCOCCOCCNC(=O)COc5cccc6c5C(=O)N(C5CCC(=O)NC5=O)C6=O)CC4)cn3)nc2n(C2CCCC2)c1=O [BSJ-03-123]; test: as above
[3] = compound: CC(=O)c1c(C)c2cnc(Nc3ccc(N4CCNCC4)cn3)nc2n(C2CCCC2)c1=O; test: as above
[4] = compound: CCN1CCN(Cc2ccc(Nc3ncc(F)c(-c4cc(F)c5nc(C)n(C(C)C)c5c4)n3)nc2)CC1; test: as above
Neratinib/HKI272 = compound: CCOc1cc2ncc(C#N)c(Nc3ccc(OCc4ccccn4)c(Cl)c3)c2cc1NC(=O)/C=C/CN(C)C [Neratinib/HKI272]; test: as above
[5] = compound: CCc1cnn2c(NCc3ccc[n+]([O-])c3)cc(N3CCCC[C@H]3CCO)nc12; test: as above
LEE011/Ribociclib = compound: CN(C)C(=O)c1cc2cnc(Nc3ccc(N4CCNCC4)cn3)nc2n1C1CCCC1 [LEE011/Ribociclib]; test: as above
THZ531 = compound: CN(C)C/C=C/C(=O)Nc1ccc(C(=O)N2CCC[C@@H](Nc3ncc(Cl)c(-c4c[nH]c5ccccc45)n3)C2)cc1 [THZ531]; test: as above
THZ1 = compound: CN(C)C/C=C/C(=O)Nc1ccc(C(=O)Nc2cccc(Nc3ncc(Cl)c(-c4c[nH]c5ccccc45)n3)c2)cc1 [THZ1]; test: as above
Flavopiridol [6] = compound: T1, Flavopiridol; test: as above

With ZR7530 the “increase in dead-cell fraction” value ([1]; 0.001 µM) was 0.0055, the “increase in dead-cell fraction” value ([1]; 0.003162 µM) was -0.0075 and the “increase in dead-cell fraction” value ([1]; 0.01 µM) was 0.0272. The “increase in dead-cell fraction” value ([1]; 0.03162 µM) was 0.0826, the “increase in dead-cell fraction” value ([1]; 0.1 µM) was 0.0398 and the “increase in dead-cell fraction” value ([1]; 0.3162 µM) was 0.0332. For the same cell line, the “increase in dead-cell fraction” value ([1]; 1 µM) was 0.0706, the “increase in dead-cell fraction” value ([1]; 3.162 µM) was 0.0448 and the “increase in dead-cell fraction” value ([1]; 10 µM) was 0.0361. For the same cell line, the “increase in dead-cell fraction” value (Flavopiridol [2]; 0.0001 µM) was -0.0012, the “increase in dead-cell fraction” value (Flavopiridol [2]; 0.0003162 µM) was 0.0085 and the “increase in dead-cell fraction” value (Flavopiridol [2]; 0.001 µM) was -0.0127. For the same cell line, the “increase in dead-cell fraction” value (Flavopiridol [2]; 0.003162 µM) was -0.0029, the “increase in dead-cell fraction” value (Flavopiridol [2]; 0.01 µM) was 0.0104 and the “increase in dead-cell fraction” value (Flavopiridol [2]; 0.03162 µM) was 0.0159. For the same cell line, the “increase in dead-cell fraction” value (Flavopiridol [2]; 0.1 µM) was 0.0202, the “increase in dead-cell fraction” value (Flavopiridol [2]; 0.3162 µM) was -0.0023 and the “increase in dead-cell fraction” value (Flavopiridol [2]; 1 µM) was 0.191. For the same cell line, the GR value (YKL-5-124; 0.001 µM) was 0.344 GR, the GR value (YKL-5-124; 0.003162 µM) was 0.254 GR and the GR value (YKL-5-124; 0.01 µM) was 0.245 GR. It also gave a GR value (YKL-5-124; 0.03162 µM) of 0.309 GR, a GR value (YKL-5-124; 0.1 µM) of 0.197 GR and a GR value (YKL-5-124; 0.3162 µM) of 0.138 GR. The GR value (YKL-5-124; 1 µM) was 0.176 GR, the GR value (YKL-5-124; 3.162 µM) was 0.177 GR and the GR value (YKL-5-124; 10 µM) was -0.625 GR. For the same cell line, the GR value (BSJ-03-123; 0.001 µM) was 0.784 GR, the GR value (BSJ-03-123; 0.003162 µM) was 0.857 GR and the GR value (BSJ-03-123; 0.01 µM) was 0.824 GR. For the same cell line, the GR value (BSJ-03-123; 0.03162 µM) was 0.72 GR, the GR value (BSJ-03-123; 0.1 µM) was 0.835 GR and the GR value (BSJ-03-123; 0.3162 µM) was 0.615 GR. The GR value (BSJ-03-123; 1 µM) was 0.398 GR, the GR value (BSJ-03-123; 3.162 µM) was 0.395 GR and the GR value (BSJ-03-123; 10 µM) was -0.258 GR. For the same cell line, the GR value ([3]; 0.0003162 µM) was 1.08 GR, the GR value ([3]; 0.001 µM) was 1.08 GR and the GR value ([3]; 0.003162 µM) was 1.06 GR. It also gave a GR value ([3]; 0.01 µM) of 0.858 GR, a GR value ([3]; 0.03162 µM) of 0.665 GR and a GR value ([3]; 0.1 µM) of 0.482 GR. It also gave a GR value ([3]; 0.3162 µM) of 0.321 GR, a GR value ([3]; 1 µM) of 0.451 GR and a GR value ([3]; 3.162 µM) of 0.253 GR. It also gave a GR value ([4]; 0.001 µM) of 1.05 GR, a GR value ([4]; 0.003162 µM) of 1.03 GR and a GR value ([4]; 0.01 µM) of 0.769 GR. The GR value ([4]; 0.03162 µM) was 0.57 GR, the GR value ([4]; 0.1 µM) was 0.322 GR and the GR value ([4]; 0.3162 µM) was 0.276 GR. The GR value ([4]; 1 µM) was 0.282 GR, the GR value ([4]; 3.162 µM) was 0.229 GR and the GR value ([4]; 10 µM) was 0.127 GR. For the same cell line, the GR value (Neratinib/HKI272; 0.0003162 µM) was 0.699 GR, the GR value (Neratinib/HKI272; 0.001 µM) was 0.374 GR and the GR value (Neratinib/HKI272; 0.003162 µM) was 0.0338 GR. The GR value (Neratinib/HKI272; 0.01 µM) was -0.0663 GR, the GR value (Neratinib/HKI272; 0.03162 µM) was -0.199 GR and the GR value (Neratinib/HKI272; 0.1 µM) was -0.22 GR. The GR value (Neratinib/HKI272; 0.3162 µM) was -0.262 GR, the GR value (Neratinib/HKI272; 1 µM) was -0.411 GR and the GR value (Neratinib/HKI272; 3.162 µM) was -0.497 GR. The GR value ([5]; 0.0001 µM) was 0.895 GR, the GR value ([5]; 0.0003162 µM) was 0.995 GR and the GR value ([5]; 0.001 µM) was 1.06 GR. It also gave a GR value ([5]; 0.003162 µM) of 0.953 GR, a GR value ([5]; 0.01 µM) of 0.909 GR and a GR value ([5]; 0.03162 µM) of -0.42 GR. The GR value ([5]; 0.1 µM) was -0.601 GR, the GR value ([5]; 0.3162 µM) was -0.696 GR and the GR value ([5]; 1 µM) was -0.728 GR. It also gave a GR value (LEE011/Ribociclib; 0.001 µM) of 0.854 GR, a GR value (LEE011/Ribociclib; 0.003162 µM) of 0.695 GR and a GR value (LEE011/Ribociclib; 0.01 µM) of 0.687 GR. It also gave a GR value (LEE011/Ribociclib; 0.03162 µM) of 0.857 GR, a GR value (LEE011/Ribociclib; 0.1 µM) of 0.607 GR and a GR value (LEE011/Ribociclib; 0.3162 µM) of 0.463 GR. It also gave a GR value (LEE011/Ribociclib; 1 µM) of 0.434 GR, a GR value (LEE011/Ribociclib; 3.162 µM) of 0.443 GR and a GR value (LEE011/Ribociclib; 10 µM) of 0.41 GR. It also gave a GR value (THZ531; 0.0001 µM) of 0.959 GR, a GR value (THZ531; 0.0003162 µM) of 1.15 GR and a GR value (THZ531; 0.001 µM) of 0.926 GR. For the same cell line, the GR value (THZ531; 0.003162 µM) was 0.99 GR, the GR value (THZ531; 0.01 µM) was 1.02 GR and the GR value (THZ531; 0.03162 µM) was 0.98 GR. For the same cell line, the GR value (THZ531; 0.1 µM) was -0.379 GR, the GR value (THZ531; 0.3162 µM) was -0.732 GR and the GR value (THZ531; 1 µM) was -0.42 GR. The GR value (THZ1; 0.0001 µM) was 0.924 GR, the GR value (THZ1; 0.0003162 µM) was 1.19 GR and the GR value (THZ1; 0.001 µM) was 1.07 GR. For the same cell line, the GR value (THZ1; 0.003162 µM) was 0.851 GR, the GR value (THZ1; 0.01 µM) was 0.985 GR and the GR value (THZ1; 0.03162 µM) was 0.289 GR. The GR value (THZ1; 0.1 µM) was -0.492 GR, the GR value (THZ1; 0.3162 µM) was -0.524 GR and the GR value (THZ1; 1 µM) was -0.638 GR. It also gave a GR value (Flavopiridol [6]; 0.0001 µM) of 1.03 GR, a GR value (Flavopiridol [6]; 0.0003162 µM) of 1.14 GR and a GR value (Flavopiridol [6]; 0.001 µM) of 1.04 GR. The GR value (Flavopiridol [6]; 0.003162 µM) was 0.795 GR, the GR value (Flavopiridol [6]; 0.01 µM) was 0.93 GR and the GR value (Flavopiridol [6]; 0.03162 µM) was 1.13 GR. The GR value (Flavopiridol [6]; 0.1 µM) was 0.766 GR, the GR value (Flavopiridol [6]; 0.3162 µM) was 0.119 GR and the GR value (Flavopiridol [6]; 1 µM) was -0.662 GR.
